Experimental data: patent publication US5358951A, “Angiotensin II receptor blocking 2, 3, 6 substituted quinazolinones” (American Cyanamid Company, priority 1993, dated 1994)

Tested on: vasopressor response of angiotensin II
Test: AII Challenge: antagonism of angiotensin II vasopressor response
Type: in vivo
Conditions: for inhibition in vivo at 3 mg/kg / inhibition in vivo at 5 mg/kg: Rattus norvegicus; for inhibition in vivo at 3 mg/kg: iv; for inhibition in vivo at 5 mg/kg: po
How it was run: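 Percent antagonism is based on the systolic blood pressure rise (mmHg) to i.v. angiotensin II at 0.05 and 0.1 ug/kg. Each rat's own predose response was taken as 100%. Challenges were repeated from 30 to 300 min after i.v., i.p. or oral compound in cannulated conscious male SHR, 16-20 weeks old.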

**Q.** Which “Response Average Change” value (3 mg/kg I.V., AII 0.05 mcg/kg IV, 30 min post dose) does the source give for CCCCc1nc2ccc(C3(C)CC4c5ccccc5CCN4O3)cc2c(=O)n1Cc1ccc(-c2ccccc2-c2nnn[nH]2)cc1 (stereo not drawn) [Example 64, Cis and Trans-2-Butyl-6-(1,5,6,10b-tetrahydro-2-methyl-2H-isoxazolo[3,2-a]isoquinolin-2-yl)-3-[[2'-(1H-tetrazol-5-yl][1,1'-biphenyl]-4-yl]methyl]-4(3H)-quinazolinone] here?
**A.** 2.5 mmHg

**Q.** And the “Response Average Change” value (3 mg/kg I.V., AII 0.05 mcg/kg IV, 60 min post dose)?
**A.** 2.5 mmHg

**Q.** And the “Response Average Change” value (3 mg/kg I.V., AII 0.05 mcg/kg IV, 90 min post dose)?
**A.** 7.5 mmHg

**Q.** And the “Response Average Change” value (3 mg/kg I.V., AII 0.05 mcg/kg IV, 180 min post dose)?
**A.** 7.5 mmHg

**Q.** What about the “Response Average Change” value (3 mg/kg I.V., AII 0.05 mcg/kg IV, 240 min post dose) of the same molecule?
**A.** 18 mmHg

**Q.** What about the “Response Average Change” value (3 mg/kg I.V., AII 0.05 mcg/kg IV, 300 min post dose) of the same molecule?
**A.** 7.5 mmHg

**Q.** And the “Response Average Change” value (3 mg/kg I.V., AII 0.1 mcg/kg IV, 30 min post dose)?
**A.** 5 mmHg

**Q.** And the “Response Average Change” value (3 mg/kg I.V., AII 0.1 mcg/kg IV, 60 min post dose)?
**A.** 5 mmHg

**Q.** What about the “Response Average Change” value (3 mg/kg I.V., AII 0.1 mcg/kg IV, 90 min post dose) of the same molecule?
**A.** 7.5 mmHg

**Q.** And the “Response Average Change” value (3 mg/kg I.V., AII 0.1 mcg/kg IV, 120 min post dose)?
**A.** 10 mmHg

**Q.** And the “Response Average Change” value (3 mg/kg I.V., AII 0.1 mcg/kg IV, 180 min post dose)?
**A.** 11 mmHg

**Q.** And the “Response Average Change” value (3 mg/kg I.V., AII 0.1 mcg/kg IV, 240 min post dose)?
**A.** 12.5 mmHg

**Q.** And the “Response Average Change” value (3 mg/kg I.V., AII 0.1 mcg/kg IV, 300 min post dose)?
**A.** 18.5 mmHg

**Q.** What about the “Response Average Change” value (3 mg/kg I.V., AII 0.5 mcg/kg IV, 120 min post dose) of the same molecule?
**A.** 5 mmHg

**Q.** And the “Response Average Change” value (5 mg/kg P.O., AII 0.05 mcg/kg IV, 30 min post dose)?
**A.** 15 mmHg

**Q.** What about the “Response Average Change” value (5 mg/kg P.O., AII 0.05 mcg/kg IV, 60 min post dose) of the same molecule?
**A.** 18.5 mmHg

**Q.** What about the “Response Average Change” value (5 mg/kg P.O., AII 0.05 mcg/kg IV, 120 min post dose) of the same molecule?
**A.** 20 mmHg

**Q.** And the “Response Average Change” value (5 mg/kg P.O., AII 0.05 mcg/kg IV, 180 min post dose)?
**A.** 17.5 mmHg

**Q.** And the “Response Average Change” value (5 mg/kg P.O., AII 0.1 mcg/kg IV, 30 min post dose)?
**A.** 27.5 mmHg

**Q.** And the “Response Average Change” value (5 mg/kg P.O., AII 0.1 mcg/kg IV, 60 min post dose)?
**A.** 23.5 mmHg

**Q.** And the “Response Average Change” value (5 mg/kg P.O., AII 0.1 mcg/kg IV, 90 min post dose)?
**A.** 22 mmHg

**Q.** What about the “Response Average Change” value (5 mg/kg P.O., AII 0.1 mcg/kg IV, 120 min post dose) of the same molecule?
**A.** 20 mmHg

**Q.** What about the “Response Average Change” value (5 mg/kg P.O., AII 0.1 mcg/kg IV, 180 min post dose) of the same molecule?
**A.** 24 mmHg

**Q.** And the “Response Average Change” value (5 mg/kg P.O., AII 0.5 mcg/kg IV, 90 min post dose)?
**A.** 20 mmHg

**Q.** And the inhibition in vivo at 3 mg/kg (0.5 h, 3 mg/kg I.V., AII 0.05 mcg/kg IV, 30 min post dose)?
**A.** 93%

**Q.** And the inhibition in vivo at 3 mg/kg (0.5 h, 3 mg/kg I.V., AII 0.1 mcg/kg IV, 30 min post dose)?
**A.** 91%

**Q.** What about the inhibition in vivo at 3 mg/kg (1 h, 3 mg/kg I.V., AII 0.05 mcg/kg IV, 60 min post dose) of the same molecule?
**A.** 93%

**Q.** And the inhibition in vivo at 3 mg/kg (1 h, 3 mg/kg I.V., AII 0.1 mcg/kg IV, 60 min post dose)?
**A.** 91%

**Q.** And the inhibition in vivo at 3 mg/kg (2 h, 3 mg/kg I.V., AII 0.1 mcg/kg IV, 120 min post dose)?
**A.** 81%

**Q.** And the inhibition in vivo at 3 mg/kg (2 h, 3 mg/kg I.V., AII 0.5 mcg/kg IV, 120 min post dose)?
**A.** 86%

**Q.** What about the inhibition in vivo at 3 mg/kg (3 h, 3 mg/kg I.V., AII 0.05 mcg/kg IV, 180 min post dose) of the same molecule?
**A.** 79%

**Q.** What about the inhibition in vivo at 3 mg/kg (3 h, 3 mg/kg I.V., AII 0.1 mcg/kg IV, 180 min post dose) of the same molecule?
**A.** 80%

**Q.** And the inhibition in vivo at 3 mg/kg (4 h, 3 mg/kg I.V., AII 0.05 mcg/kg IV, 240 min post dose)?
**A.** 51%

**Q.** What about the inhibition in vivo at 3 mg/kg (4 h, 3 mg/kg I.V., AII 0.1 mcg/kg IV, 240 min post dose) of the same molecule?
**A.** 77%

**Q.** What about the inhibition in vivo at 3 mg/kg (5 h, 3 mg/kg I.V., AII 0.05 mcg/kg IV, 300 min post dose) of the same molecule?
**A.** 79%

**Q.** And the inhibition in vivo at 3 mg/kg (5 h, 3 mg/kg I.V., AII 0.1 mcg/kg IV, 300 min post dose)?
**A.** 66%

**Q.** And the inhibition in vivo at 3 mg/kg ([…], 3 mg/kg I.V., AII 0.05 mcg/kg IV, 90 min post dose)?
**A.** 79%

**Q.** What about the inhibition in vivo at 3 mg/kg ([…], 3 mg/kg I.V., AII 0.1 mcg/kg IV, 90 min post dose) of the same molecule?
**A.** 86%

**Q.** And the inhibition in vivo at 5 mg/kg (0.5 h, 5 mg/kg P.O., AII 0.05 mcg/kg IV, 30 min post dose)?
**A.** 54%

**Q.** What about the inhibition in vivo at 5 mg/kg (0.5 h, 5 mg/kg P.O., AII 0.1 mcg/kg IV, 30 min post dose) of the same molecule?
**A.** 25%

**Q.** And the inhibition in vivo at 5 mg/kg (1 h, 5 mg/kg P.O., AII 0.05 mcg/kg IV, 60 min post dose)?
**A.** 43%

**Q.** What about the inhibition in vivo at 5 mg/kg (1 h, 5 mg/kg P.O., AII 0.1 mcg/kg IV, 60 min post dose) of the same molecule?
**A.** 36%

**Q.** And the inhibition in vivo at 5 mg/kg (2 h, 5 mg/kg P.O., AII 0.05 mcg/kg IV, 120 min post dose)?
**A.** 38%

**Q.** And the inhibition in vivo at 5 mg/kg (2 h, 5 mg/kg P.O., AII 0.1 mcg/kg IV, 120 min post dose)?
**A.** 45%

**Q.** And the inhibition in vivo at 5 mg/kg (3 h, 5 mg/kg P.O., AII 0.05 mcg/kg IV, 180 min post dose)?
**A.** 46%

**Q.** And the inhibition in vivo at 5 mg/kg (3 h, 5 mg/kg P.O., AII 0.1 mcg/kg IV, 180 min post dose)?
**A.** 34%

**Q.** What about the inhibition in vivo at 5 mg/kg ([…], 5 mg/kg P.O., AII 0.1 mcg/kg IV, 90 min post dose) of the same molecule?
**A.** 40%

**Q.** And the inhibition in vivo at 5 mg/kg ([…], 5 mg/kg P.O., AII 0.5 mcg/kg IV, 90 min post dose)?
**A.** 38%
